# Where “and” joins values, the source holds several entries; their conditions need not be identical. Equal entries are not always repeated. Where two headings read alike, the source gives them in different places.
# Legend:
# Vero cells = assay: cytotoxicity, MTT assay; assay type: cell-based; conditions: Chlorocebus sabaeus
# Method: (§1) The compounds were examined for toxicity (IC50) using MTT assay. Briefly, cells (3 ~ 5 × 10^3 cells/well) were seeded in a 96-well plate. After 24 h incubation, the cells were treated with various concentrations of drugs for 24, 48, 72 h, respectively. Columns one and two in the assay plates contained-media +0.1% DMSO for a negative control ,Then, 20 μl of a 5 mg/mL MTT solution was added to each well, and the plates were incubated for an additional 2~4 h at 37 °C. The medium was subsequently discarded, and DMSO 150 μL was added to dissolve the formazan. Oscillate 15 min, the OD 570 was measured using a Spectra MAX M5 microplate spectrophotometer (Molecular Devices, CA, USA), and the IC50 values were calculated.
# (§2) Compound MIC was conducted by ShangHai Chempartner Co., Ltd (Shanghai, China) using the microplate Alamar Blue assay (MABA) against Mycobacterium tuberculosis H37Ra (ATCC 25177). Cytotoxicity of tested compounds was assessed on Vero cells.
# M. tuberculosis Erdman = assay: in vivo acute M.tb Erdman infection mouse model; parameters: species or system Mycobacterium tuberculosis
# CYP2D6 = CYP2D6 (Homo sapiens, UniProt P10635); assay: CYP inhibition; assay type: in vitro ADME; conditions: read-out: CYP inhibition IC50, CYP2D6
# Sequence of CYP2D6 (P10635 whole entry): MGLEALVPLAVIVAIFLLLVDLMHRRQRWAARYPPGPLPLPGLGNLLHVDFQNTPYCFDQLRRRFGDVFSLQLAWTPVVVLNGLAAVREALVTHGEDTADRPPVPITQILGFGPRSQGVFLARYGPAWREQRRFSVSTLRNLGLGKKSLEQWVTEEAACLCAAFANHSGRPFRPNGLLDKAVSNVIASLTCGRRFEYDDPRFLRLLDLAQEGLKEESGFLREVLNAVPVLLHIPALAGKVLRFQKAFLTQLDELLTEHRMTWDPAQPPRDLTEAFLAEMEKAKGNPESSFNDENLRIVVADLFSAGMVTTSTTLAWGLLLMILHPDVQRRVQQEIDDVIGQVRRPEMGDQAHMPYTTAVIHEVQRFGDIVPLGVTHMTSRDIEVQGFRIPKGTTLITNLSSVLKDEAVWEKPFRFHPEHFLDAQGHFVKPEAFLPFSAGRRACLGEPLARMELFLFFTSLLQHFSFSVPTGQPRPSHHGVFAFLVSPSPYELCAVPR
# Method: (§3) The In vitro ADME/T assays were conducted at WuXi AppTec Co. Ltd.(Shanghai). ClogP was calculated with ChemDraw Ultra 14.0. In the study of bi-directional permeability across MDR1-MDCKII cell monolayer, permeability was correlated with the apparent permeability coefficient Papp (cm/s), which was interpreted as follows: Low permeability( Papp ≤ 1.0×10^-6 cm/s), Moderate permeability(1.0×10^-6 < Papp < 5.5×10^-6 cm/s) or High permeability( Papp ≥ 5.5×10^-6 cm/s). ^aaqueous solubility at room temperature.
# CYP2C9 = CYP2C9 (Homo sapiens, UniProt P11712); assay: CYP inhibition; assay type: in vitro ADME; conditions: read-out: CYP inhibition IC50, CYP2C9
# Sequence of CYP2C9 (P11712 whole entry): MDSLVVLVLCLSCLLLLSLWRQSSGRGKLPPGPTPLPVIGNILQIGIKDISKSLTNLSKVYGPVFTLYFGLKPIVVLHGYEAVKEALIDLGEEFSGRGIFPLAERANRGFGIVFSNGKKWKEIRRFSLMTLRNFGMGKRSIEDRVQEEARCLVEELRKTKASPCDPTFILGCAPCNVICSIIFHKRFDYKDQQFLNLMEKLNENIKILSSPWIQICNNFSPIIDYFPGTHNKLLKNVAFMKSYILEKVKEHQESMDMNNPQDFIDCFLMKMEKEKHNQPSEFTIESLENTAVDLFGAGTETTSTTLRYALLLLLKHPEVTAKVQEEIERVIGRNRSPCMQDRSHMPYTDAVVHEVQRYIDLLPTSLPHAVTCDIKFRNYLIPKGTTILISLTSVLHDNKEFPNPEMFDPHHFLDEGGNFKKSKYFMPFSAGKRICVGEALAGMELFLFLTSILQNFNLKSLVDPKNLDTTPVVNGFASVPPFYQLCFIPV
# Method: as §3
# CYP2C19 = CYP2C19 (Homo sapiens, UniProt P33261); assay: CYP inhibition; assay type: in vitro ADME; conditions: read-out: CYP inhibition IC50, CYP2C19
# Sequence of CYP2C19 (P33261 whole entry): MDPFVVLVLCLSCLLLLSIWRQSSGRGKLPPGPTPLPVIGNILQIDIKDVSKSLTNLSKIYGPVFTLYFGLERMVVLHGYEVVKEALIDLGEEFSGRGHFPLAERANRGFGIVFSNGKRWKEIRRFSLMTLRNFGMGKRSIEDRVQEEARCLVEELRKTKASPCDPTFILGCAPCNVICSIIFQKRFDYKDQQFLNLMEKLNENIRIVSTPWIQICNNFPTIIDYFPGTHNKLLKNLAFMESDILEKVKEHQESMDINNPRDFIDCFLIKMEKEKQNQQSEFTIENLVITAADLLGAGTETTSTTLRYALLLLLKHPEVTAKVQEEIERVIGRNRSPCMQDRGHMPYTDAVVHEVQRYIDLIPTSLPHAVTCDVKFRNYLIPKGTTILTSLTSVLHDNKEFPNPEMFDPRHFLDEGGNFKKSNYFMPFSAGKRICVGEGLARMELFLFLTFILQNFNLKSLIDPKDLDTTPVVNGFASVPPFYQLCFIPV
# Method: as §3
# CYP3A4 = CYP3A4 (Homo sapiens, UniProt P08684); assay: CYP inhibition; assay type: in vitro ADME; conditions: read-out: CYP inhibition IC50, CYP3A4
# Sequence of CYP3A4 (P08684 whole entry): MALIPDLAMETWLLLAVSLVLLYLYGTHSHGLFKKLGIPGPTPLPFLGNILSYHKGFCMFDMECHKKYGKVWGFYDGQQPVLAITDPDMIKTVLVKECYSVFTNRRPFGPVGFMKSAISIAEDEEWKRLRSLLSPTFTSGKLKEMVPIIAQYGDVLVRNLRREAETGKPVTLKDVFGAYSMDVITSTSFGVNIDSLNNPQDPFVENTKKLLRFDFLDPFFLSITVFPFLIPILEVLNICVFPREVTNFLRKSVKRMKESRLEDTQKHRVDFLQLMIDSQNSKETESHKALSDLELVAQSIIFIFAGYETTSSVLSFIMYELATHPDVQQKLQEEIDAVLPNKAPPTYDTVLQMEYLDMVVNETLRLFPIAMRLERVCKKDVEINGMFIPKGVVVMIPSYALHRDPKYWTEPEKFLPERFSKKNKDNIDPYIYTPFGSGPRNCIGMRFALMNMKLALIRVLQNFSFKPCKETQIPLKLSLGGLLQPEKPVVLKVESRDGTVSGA
# Method: as §3
# aqueous solubility = assay type: physicochemical
# Method: as §3
# Mycobacterium avium = assay: microdilution plate assay, MIC; assay type: cell-based
# J774A.1 cells = assay: cytotoxicity, MTT assay; assay type: cell-based; conditions: Mus musculus, J774.A1
# Method: as §1
# A549 cells = assay: cytotoxicity, MTT assay; assay type: cell-based; conditions: Homo sapiens
# Method: as §1
# [1] = test system: MDR1-MDCKII cell monolayer; assay: bi-directional permeability across MDR1-MDCKII cell monolayer; assay type: in vitro ADME; conditions: dog, MDCK-MDR1
# Method: as §3
# [2] = test system: M. tuberculosis Erdman in J774A.1 cells; assay: macrophage assay, intracellular activity; assay type: cell-based, Mycobacterium tuberculosis
# Method: As described previously, J774A.1 cells were grown in 75-cm2 cell culture flasks in 10% FBS in Dulbecco’s modified Eagle’s medium (DMEM) until confluency. The cells were detached using a cell scraper, and then centrifuged at 200 g for 5 min at room temperature. The cells were incubated at 37 °C under 5% CO2 for 16 h after distributing into 24-well plates containing coverslips. M. tuberculosis Erdman (ATCC 35801) were diluted to a final concentration of 1 × 10^5 to 3 × 10^5 CFU/mL with DMEM after thawing and sonicating from frozen cultures. And 500 ul of the dilution was dispensed to each well of a new 24-well plate. Followed by, J774A.1 cells on coverslips were infected by incubation with M. tuberculosis Erdman at 37 °C for 2 h. Coverslips were then washed with HBSS and transferred to new 24-well plates. The Cultures were treated in triplicate with compounds at 0.02 μM containing DMEM and incubated at 37 °C under 5% CO2 for 16 h. At D 0 (for untreated controls) and after 7 days of incubation, macrophage cells were lysed by addition of 200 μL of 0.25% sodium dodecyl sulfate. The plates were incubated at 37 °C for 10 min, and 200 μL of DMEM was added. The lysate was sampled using a microtube and sonicated for 15 s. Then 1:1, 1:10, 1:100, and 1:1,000 dilutions were plated on 7H11 agar plates and CFU counts determined after 2 to 3 weeks of incubation at 37 °C.
# [3] = pharmacokinetic study in SD rats; assay type: in vivo; conditions: female, rat, 5 mg/kg
# Method: All animal experiments have been approved by the Institutional Animal Care and Treatment Committee of Sichuan University in China and were carried out in accordance with the approved guidelines. SPF female SD rats weighing 180–220 g were used in the pharmacokinetic study. The rats were fasted overnight before dosing. Every treatment group contain 3 rats. Rats were dosed with SKLB-TB1001 or BTZ043 suspension at 5 mg/kg (i.v. and p.o.). Compounds were dissolved in 5% DMSO/10% Solutol HS15 in saline for intravenous injection and suspended in 0.5% CMC for oral administration. Blood was collected from the jugular vein of each animal at the following times after administration of drugs: 0.083, 0.25, 0.5, 1, 2, 4, 6, 8 and 24 h after a single i.v. dosing; and 0.25, 0.5, 1, 2, 4, 6, 8 and 24 h after a single oral dosing. All blood samples were centrifuged at 3000 r/min for 10 min to obtain serum which was then stored at −20 °C. 150 μL of the serum was added to 500 μL of acetonitrile and the mixture was centrifuged at 13000 r/min for 10 min to remove protein. The supernatant was dried and dissolve in 100 μL of acetonitrile, the solution was centrifuged at 13000 r/min for 10 min. The supernatant was moved to a sample bottle for HPLC analysis. Total area under the concentration time curve (AUC), the elimination half-time (t1/2), the peak concentration (Cmax) and the time to reach peak concentration (Tmax) of samples were determined directly from the experimental data using WinNonlin V6.2.1.
# plasma protein binding = assay type: in vitro ADME; conditions: mouse
# Method: as §3
# [4] = test system: Mycobacterium tuberculosis; parameters: method as in PMID 19299584; conditions: cited from earlier work
# M. tuberculosis H37Rv = assay: MABA checkerboard synergy assay; assay type: cell-based, Mycobacterium tuberculosis
# [5] = test system: Mycobacterium tuberculosis H37Ra (ATCC 25177); assay: microplate Alamar Blue assay (MABA), MIC, H37Ra; assay type: cell-based
# Method: as §2
# [6] = test system: Mycobacterium tuberculosis H37Rv; assay: microplate Alamar blue assay (MABA), MIC; assay type: cell-based; conditions: replicating H37Rv
# [7] = test system: Mycobacterium tuberculosis Erdman; assay: microplate Alamar blue assay (MABA), MIC; assay type: cell-based
smiles,measurement,setting,value
C[C@H]1COC2(CCN(c3nc(=O)c4cc(C(F)(F)F)cc([N+](=O)[O-])c4s3)CC2)O1 [BTZ043],IC50,"Vero cells; Vero, cytotoxicity, read-out: IC50 Vero",> 100 µg/mL
same,IC50,"Vero cells; cytotoxicity on Vero cells, read-out: IC50",> 20 µM
same,activity in the acute Mtb Erdman infection mouse model,M. tuberculosis Erdman; 150 mg/kg,not significantly active
same,"Log10 CFU (SD), bacterial burden in mouse lungs","M. tuberculosis Erdman; BALB/c mice, Day-36, 150 mg/kg oral daily from day 10",6.31 (5.85)
same,IC50,CYP2D6,> 10 µM
same,IC50,CYP2C9,> 10 µM
same,IC50,CYP2C19,> 10 µM
same,IC50,CYP3A4,> 10 µM
same,Solubility,aqueous solubility,<1
same,MIC,Mycobacterium avium,32 µg/mL
same,IC50,J774A.1 cells,32 µg/mL
same,IC50,A549 cells,25 µg/mL
same,"Permeability (Mean Papp, MDR1) A to B",[1],9.02 10^-6 cm/s
same,"Permeability (Mean Papp, MDR1) B to A",[1],7.17 10^-6 cm/s
same,efflux ratio,[1],0.79
same,"Log10 CFU, intracellular Mtb Erdman","[2]; J774A.1 macrophages, 0.02 μM (Fig. 2 legend: 0.02 μg/mL), 7 days",4.70
same,Fold(log) reduction,"[2]; decrease of log10 CFU between D7 and treatment group, J774A.1, 0.02 μM (Fig. 2 legend: 0.02 μg/mL)",2.2 log and 2.15 log
same,bioavailability,"[3]; SD, in vivo",29.5%
same,AUC,"[3]; SD, in vivo, po",899 ng·h/mL
same,Cmax,"[3]; SD, in vivo, po",543 ng/mL
same,Tmax,"[3]; SD, in vivo, po",15 min
same,half-life,"[3]; plasma, po, SD rats, terminal half-life for elimination",73.2 min
same,fraction unbound,plasma protein binding,< 0.01
same,MIC,[4],0.001 µg/mL
same,MIC,"M. tuberculosis H37Rv; Mycobacterium tuberculosis, H37RV, 336 h, checkerboard, drug alone, read-out: MIC against H37Rv, MIC alone",0.011 µg/mL
same,"MIC against H37Rv, MIC in combo.",M. tuberculosis H37Rv; in combination with RMP,0.008 µg/mL
same,MIC,[5],< 0.1 µM
same,MIC,[6],0.02 µg/mL
same,MIC,[7],< 0.05 µg/mL

# From publication PMC4942819 (Scientific Reports, 2016)
